# Experimental data taken from patent publication US9796677B2, “Amide compound and pharmaceutical comprising same” (JAPAN SCIENCE AND TECHNOLOGY AGENCY, priority 2013, dated 2017).
# How the values were obtained:
# O-acylisopeptide of Aβ = molecular target: T1, O-acylisopeptide of Aβ (Homo sapiens, UniProt P05067); assay: Aβ aggregation inhibition test (thioflavine T fluorescence); assay type: biochemical; conditions: final sample concentration 30 μM, Aβ O-acylisopeptide 10 μM, pH 7.4, 37° C., 1% DMSO; DMSO control defined as 100
# T1 construct: containing O-acylisopeptide of Aβ (10 μM)
# T1 sequence (P05067 672-713 limits assumed): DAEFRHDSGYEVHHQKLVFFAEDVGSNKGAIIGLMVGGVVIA
# Experimental: A test sample solution (solution in DMSO) was added into a 0.1 M phosphate buffer solution (pH 7.4, 50 μL) containing O-acylisopeptide of Aβ (10 μM) (final sample concentration: 30 μM, 1% DMSO), and the mixture was incubated at 37° C. for an arbitrary time. Then, an aliquot (10 μL) of the reaction solution was added to a mixed solution of a thioflavine T solution (50 μM thioflavine T, 10 μL) and a 50 mM glycine-NaOH buffer (pH 8.5, 396 μL) and immediately mixed therewith, and the fluorescence intensity of thioflavine T was measured. In the fluorescence intensity measurement, 440 nm was used as an excitation wavelength, and 480 nm was used as a fluorescent wavelength.
# Aβ = conditions: background statement on the known pentapeptide; cited from earlier work
# Chain of Aβ (P05067 672-711 limits assumed): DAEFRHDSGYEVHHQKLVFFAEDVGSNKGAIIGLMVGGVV
Compound,Aggregation inhibition ratio (lower value means stronger inhibitory activity) (O-acylisopeptide of Aβ),Aβ aggregation inhibitory activity (Aβ)
"CC(C)CCNC(=O)c1cc(Cc2ccccc2)cc(Oc2ccccc2)n1 [Compound 1, 4-Benzyl-6-phenoxy-N-isoamylpicolinamide]",61,–
"CC(C)CCNC(=O)c1cc(Cc2ccc3ccccc3c2)cc(Oc2ccccc2)n1 [Compound 2, 4-(Naphthalen-2-yl)methyl-6-phenoxy-N-isoamylpicolinamide]",52,–
"CC(C)CCCNC(=O)c1cc(Cc2ccccc2)cc(Oc2ccccc2)n1 [Compound 3, 4-Benzyl-6-phenoxy-N-(4-methylpentyl)picolinamide]",58,–
"CC(C)CCNC(=O)c1cc(Cc2ccccc2)cc(OC2CCCCC2)n1 [Compound 4, 4-Benzyl-6-cyclohexyloxy-N-isoamylpicolinamide]",60,–
"CC(C)CCNC(=O)c1cc(Cc2ccccc2)cc(OCc2ccccc2)n1 [Compound 5, 6-Benzyloxy-4-benzyl-N-isoamylpicolinamide]",75,–
"CC(C)CCOc1cc(Cc2ccccc2)cc(C(=O)NCCc2ccccc2)n1 [Compound 6, 4-Benzyl-6-(3-methylbutoxy)-N-phenylethylpicolinamide]",60,–
"O=C(NC1C2CC3CC(C2)CC1C3)c1nc(Cc2ccccc2)cc(Oc2ccccc2)n1 (centres unmarked) [Compound 12, N-(Adamantan-2-yl)-4-benzyl-6-phenoxypyrimidine-2-carboxamide]",40,–
"L-[Lys-Leu-Val-Phe-Phe] (KLVFF) [(known), used as control]",–,very weak
